{"source": "ChEMBL document CHEMBL5696442", "about": "“Discovery of type II inhibitors of TGFβ-activated kinase 1 (TAK1) and mitogen-activated protein kinase kinase kinase kinase 2 (MAP4K2)” (J Med Chem, 2015)", "key": {"[1]": {"target": "Tyrosine-protein kinase SYK (Homo sapiens) (UniProt P43405)", "assay": "Inhibition of SYK (unknown origin) at 1 uM by Ambit Kinomescan binding assay relative to control"}, "[2]": {"test_system": "Receptor-type tyrosine-protein kinase FLT3 (Homo sapiens), P36888 [D835Y]", "assay": "Inhibition of FLT3 D835Y mutant (unknown origin) at 1 uM by Ambit Kinomescan binding assay relative to control; values are per cent of control"}, "[3]": {"target": "5'-AMP-activated protein kinase catalytic subunit alpha-1 (Homo sapiens) (UniProt Q13131)", "sequence (Q13131 whole entry, looked up)": "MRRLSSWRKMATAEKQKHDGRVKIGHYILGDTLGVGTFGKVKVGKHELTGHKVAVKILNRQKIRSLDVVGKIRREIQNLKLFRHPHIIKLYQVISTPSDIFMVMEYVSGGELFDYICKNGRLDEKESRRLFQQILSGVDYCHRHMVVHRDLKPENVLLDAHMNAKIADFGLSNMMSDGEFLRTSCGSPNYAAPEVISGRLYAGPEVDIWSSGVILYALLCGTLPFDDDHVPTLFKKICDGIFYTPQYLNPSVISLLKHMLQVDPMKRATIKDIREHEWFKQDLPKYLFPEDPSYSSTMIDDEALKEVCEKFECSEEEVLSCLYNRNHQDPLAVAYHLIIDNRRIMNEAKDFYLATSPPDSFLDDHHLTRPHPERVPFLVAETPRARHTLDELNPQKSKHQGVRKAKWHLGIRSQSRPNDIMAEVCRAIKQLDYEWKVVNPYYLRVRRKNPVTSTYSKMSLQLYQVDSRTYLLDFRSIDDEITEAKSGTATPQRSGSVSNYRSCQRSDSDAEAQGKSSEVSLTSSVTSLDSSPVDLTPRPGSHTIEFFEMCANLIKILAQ", "assay": "Inhibition of AMPKa1 ATP Loop labeling site in human A-375 cells at 5 uM by KiNativ Profiling analysis relative to control", "type": "cell-based"}, "[4]": {"target": "T1, Serine/threonine-protein kinase D3 (Homo sapiens) (UniProt O94806)", "T1 sequence (whole entry)": "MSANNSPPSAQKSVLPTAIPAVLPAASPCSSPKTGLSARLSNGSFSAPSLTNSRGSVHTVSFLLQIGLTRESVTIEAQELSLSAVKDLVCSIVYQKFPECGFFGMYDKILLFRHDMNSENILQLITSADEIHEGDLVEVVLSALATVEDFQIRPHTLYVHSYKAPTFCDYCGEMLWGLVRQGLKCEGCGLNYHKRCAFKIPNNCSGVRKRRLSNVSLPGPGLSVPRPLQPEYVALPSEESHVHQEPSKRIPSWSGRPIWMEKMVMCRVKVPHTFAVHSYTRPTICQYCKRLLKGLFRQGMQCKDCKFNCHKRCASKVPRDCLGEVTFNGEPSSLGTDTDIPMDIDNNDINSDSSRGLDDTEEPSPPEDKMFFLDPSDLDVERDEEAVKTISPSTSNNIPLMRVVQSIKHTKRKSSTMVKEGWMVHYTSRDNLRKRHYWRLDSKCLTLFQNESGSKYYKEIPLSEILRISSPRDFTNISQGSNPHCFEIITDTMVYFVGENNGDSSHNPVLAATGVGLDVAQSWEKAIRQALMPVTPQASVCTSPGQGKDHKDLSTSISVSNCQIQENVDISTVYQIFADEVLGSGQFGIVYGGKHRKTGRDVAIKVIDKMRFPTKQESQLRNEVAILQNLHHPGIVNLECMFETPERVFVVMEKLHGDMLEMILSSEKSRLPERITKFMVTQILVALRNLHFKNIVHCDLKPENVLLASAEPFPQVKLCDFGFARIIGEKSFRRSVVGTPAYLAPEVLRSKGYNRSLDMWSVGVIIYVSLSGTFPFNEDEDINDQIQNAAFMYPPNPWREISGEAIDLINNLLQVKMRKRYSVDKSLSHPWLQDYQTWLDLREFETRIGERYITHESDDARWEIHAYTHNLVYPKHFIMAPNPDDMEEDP", "assay": "Inhibition of PKD3 Lys2 labeling site in human A-375 cells at 0.5 uM by KiNativ Profiling analysis relative to control", "type": "cell-based"}, "[5]": {"target": "Casein kinase I isoform delta (Homo sapiens) (UniProt P48730)", "sequence (P48730 whole entry, looked up, canonical isoform)": "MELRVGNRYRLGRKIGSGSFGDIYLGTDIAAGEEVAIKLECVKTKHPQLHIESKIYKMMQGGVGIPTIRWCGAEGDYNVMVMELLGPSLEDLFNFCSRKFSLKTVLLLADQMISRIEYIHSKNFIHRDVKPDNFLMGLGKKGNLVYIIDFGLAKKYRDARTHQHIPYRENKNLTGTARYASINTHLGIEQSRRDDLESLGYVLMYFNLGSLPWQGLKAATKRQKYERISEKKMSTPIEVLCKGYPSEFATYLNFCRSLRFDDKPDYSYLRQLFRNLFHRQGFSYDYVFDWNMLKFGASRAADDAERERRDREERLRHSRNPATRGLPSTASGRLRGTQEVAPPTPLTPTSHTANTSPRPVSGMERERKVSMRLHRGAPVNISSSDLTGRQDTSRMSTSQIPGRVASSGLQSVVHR", "assay": "Inhibition of CK1delta Lys2 labeling site in human A-375 cells at 5 uM by KiNativ Profiling analysis relative to control", "type": "cell-based"}, "[6]": {"target": "Tyrosine-protein kinase JAK1 (Homo sapiens) (UniProt P23458)", "assay": "Inhibition of JAK1 Domain 2 ACT labeling site in human Huh-7 cells at 10 uM by KiNativ Profiling analysis relative to control", "type": "cell-based"}, "[7]": {"target": "Mitogen-activated protein kinase kinase kinase kinase 4 (Homo sapiens, UniProt O95819)", "sequence (O95819 2-1239 limits assumed)": "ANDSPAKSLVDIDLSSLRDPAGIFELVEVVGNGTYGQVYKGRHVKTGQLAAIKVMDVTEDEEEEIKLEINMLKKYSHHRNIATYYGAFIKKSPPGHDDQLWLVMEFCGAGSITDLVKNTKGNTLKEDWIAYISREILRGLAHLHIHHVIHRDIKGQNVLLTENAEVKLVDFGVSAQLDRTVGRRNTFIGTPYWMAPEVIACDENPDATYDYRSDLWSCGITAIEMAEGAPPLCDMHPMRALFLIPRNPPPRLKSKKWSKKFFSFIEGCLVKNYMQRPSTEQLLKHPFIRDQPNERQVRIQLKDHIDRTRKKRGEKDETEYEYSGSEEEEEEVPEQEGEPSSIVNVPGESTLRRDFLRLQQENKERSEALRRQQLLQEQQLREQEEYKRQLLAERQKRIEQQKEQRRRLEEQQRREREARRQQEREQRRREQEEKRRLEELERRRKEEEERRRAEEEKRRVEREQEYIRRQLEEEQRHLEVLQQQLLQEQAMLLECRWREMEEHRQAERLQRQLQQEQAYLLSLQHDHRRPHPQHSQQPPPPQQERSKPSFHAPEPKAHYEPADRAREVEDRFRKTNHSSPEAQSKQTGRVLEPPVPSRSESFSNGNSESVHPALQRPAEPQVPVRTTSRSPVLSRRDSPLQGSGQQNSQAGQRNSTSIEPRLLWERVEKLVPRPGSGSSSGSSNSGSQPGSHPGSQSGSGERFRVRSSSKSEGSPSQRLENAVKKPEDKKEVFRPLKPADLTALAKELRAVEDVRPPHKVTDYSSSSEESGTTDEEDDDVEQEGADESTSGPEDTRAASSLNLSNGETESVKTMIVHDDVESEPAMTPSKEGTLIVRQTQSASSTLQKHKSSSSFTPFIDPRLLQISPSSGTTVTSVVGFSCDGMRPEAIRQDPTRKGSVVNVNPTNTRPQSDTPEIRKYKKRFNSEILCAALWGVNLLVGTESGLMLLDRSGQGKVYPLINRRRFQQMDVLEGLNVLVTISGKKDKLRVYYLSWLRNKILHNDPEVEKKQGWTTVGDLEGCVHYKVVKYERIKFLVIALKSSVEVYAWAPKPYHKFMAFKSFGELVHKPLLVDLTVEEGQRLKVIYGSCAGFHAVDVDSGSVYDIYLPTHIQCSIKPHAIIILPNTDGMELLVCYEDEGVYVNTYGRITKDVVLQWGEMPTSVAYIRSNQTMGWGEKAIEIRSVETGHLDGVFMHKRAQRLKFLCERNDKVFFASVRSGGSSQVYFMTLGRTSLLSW", "assay": "Inhibition of ZC1/HGK K1 labeling site harbouring TGQLAAIKVMDVTEDEEEEIKLEINMLKK in human Huh-7 cells at 1 uM by KiNativ Profiling analysis relative to control", "type": "cell-based"}, "[8]": {"target": "T2, Eukaryotic elongation factor 2 kinase (Homo sapiens) (UniProt O00418)", "T2 sequence (whole entry)": "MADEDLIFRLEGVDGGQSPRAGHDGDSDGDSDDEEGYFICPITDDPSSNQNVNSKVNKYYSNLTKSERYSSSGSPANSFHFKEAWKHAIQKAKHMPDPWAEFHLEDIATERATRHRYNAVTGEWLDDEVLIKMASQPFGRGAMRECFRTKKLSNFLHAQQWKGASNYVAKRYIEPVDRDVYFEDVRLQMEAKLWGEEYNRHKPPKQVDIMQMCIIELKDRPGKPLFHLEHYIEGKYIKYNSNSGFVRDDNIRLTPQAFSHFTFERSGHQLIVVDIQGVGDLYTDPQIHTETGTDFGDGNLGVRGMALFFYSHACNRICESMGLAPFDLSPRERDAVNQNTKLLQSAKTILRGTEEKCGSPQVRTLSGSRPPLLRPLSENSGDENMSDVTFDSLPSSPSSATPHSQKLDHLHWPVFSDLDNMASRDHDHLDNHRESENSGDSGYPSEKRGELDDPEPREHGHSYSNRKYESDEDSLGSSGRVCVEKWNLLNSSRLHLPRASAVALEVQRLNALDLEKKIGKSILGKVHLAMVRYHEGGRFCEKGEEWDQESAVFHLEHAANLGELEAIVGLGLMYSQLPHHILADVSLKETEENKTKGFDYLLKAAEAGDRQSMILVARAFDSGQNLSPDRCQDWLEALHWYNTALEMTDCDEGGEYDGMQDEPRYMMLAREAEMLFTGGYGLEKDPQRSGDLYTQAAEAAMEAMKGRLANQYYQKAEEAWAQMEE", "assay": "Inhibition of eEF2K ATP labeling site harbouring YIKYNSNSGFVR in human A-375 cells at 0.05 uM by KiNativ Profiling analysis relative to control", "type": "cell-based"}, "[9]": {"target": "Casein kinase I isoform epsilon (Homo sapiens) (UniProt P49674)", "assay": "Inhibition of CK1epsilon Lys2 labeling site in human A-375 cells at 0.5 uM by KiNativ Profiling analysis relative to control", "type": "cell-based"}, "[10]": {"target": "Tyrosine-protein kinase ABL1 (Homo sapiens, UniProt P00519)", "assay": "Inhibition of ABL Lys1 labeling site in human A-375 cells at 0.05 uM by KiNativ Profiling analysis relative to control", "type": "cell-based"}, "[11]": {"target": "Cyclin-dependent kinase 11B (Homo sapiens) (UniProt P21127)", "sequence (P21127 whole entry)": "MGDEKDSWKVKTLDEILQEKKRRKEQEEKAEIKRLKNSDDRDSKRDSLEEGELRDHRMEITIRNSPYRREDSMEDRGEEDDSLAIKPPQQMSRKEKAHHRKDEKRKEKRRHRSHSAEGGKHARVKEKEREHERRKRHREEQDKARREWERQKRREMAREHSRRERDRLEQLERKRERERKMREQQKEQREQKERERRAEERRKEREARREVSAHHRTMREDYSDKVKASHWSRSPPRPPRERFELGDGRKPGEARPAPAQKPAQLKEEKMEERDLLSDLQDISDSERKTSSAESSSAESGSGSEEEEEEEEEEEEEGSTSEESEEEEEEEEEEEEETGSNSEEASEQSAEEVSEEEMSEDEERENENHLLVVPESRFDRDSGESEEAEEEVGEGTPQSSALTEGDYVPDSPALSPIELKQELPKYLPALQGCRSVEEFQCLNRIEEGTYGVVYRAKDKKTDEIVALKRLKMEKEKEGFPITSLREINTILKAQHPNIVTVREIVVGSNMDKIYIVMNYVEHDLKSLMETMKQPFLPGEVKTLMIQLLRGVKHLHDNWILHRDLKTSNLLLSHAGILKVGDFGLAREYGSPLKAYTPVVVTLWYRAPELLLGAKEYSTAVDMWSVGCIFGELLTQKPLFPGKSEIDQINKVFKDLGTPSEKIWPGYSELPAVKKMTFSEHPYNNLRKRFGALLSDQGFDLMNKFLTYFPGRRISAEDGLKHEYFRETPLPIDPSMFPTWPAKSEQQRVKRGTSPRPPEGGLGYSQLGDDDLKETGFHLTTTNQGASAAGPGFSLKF", "assay": "Inhibition of CDK11 Lys2 labeling site in human A-375 cells at 0.5 uM by KiNativ Profiling analysis relative to control", "type": "cell-based"}, "[12]": {"assay": "Inhibition of MAP3K2/3 K2 labeling site in human Huh-7 cells at 1 uM by KiNativ Profiling analysis relative to control", "settings": "condition cancer"}, "[13]": {"target": "Phosphatidylinositol 4,5-bisphosphate 3-kinase catalytic subunit alpha isoform (Homo sapiens) (UniProt P42336)", "sequence (P42336 whole entry, canonical isoform)": "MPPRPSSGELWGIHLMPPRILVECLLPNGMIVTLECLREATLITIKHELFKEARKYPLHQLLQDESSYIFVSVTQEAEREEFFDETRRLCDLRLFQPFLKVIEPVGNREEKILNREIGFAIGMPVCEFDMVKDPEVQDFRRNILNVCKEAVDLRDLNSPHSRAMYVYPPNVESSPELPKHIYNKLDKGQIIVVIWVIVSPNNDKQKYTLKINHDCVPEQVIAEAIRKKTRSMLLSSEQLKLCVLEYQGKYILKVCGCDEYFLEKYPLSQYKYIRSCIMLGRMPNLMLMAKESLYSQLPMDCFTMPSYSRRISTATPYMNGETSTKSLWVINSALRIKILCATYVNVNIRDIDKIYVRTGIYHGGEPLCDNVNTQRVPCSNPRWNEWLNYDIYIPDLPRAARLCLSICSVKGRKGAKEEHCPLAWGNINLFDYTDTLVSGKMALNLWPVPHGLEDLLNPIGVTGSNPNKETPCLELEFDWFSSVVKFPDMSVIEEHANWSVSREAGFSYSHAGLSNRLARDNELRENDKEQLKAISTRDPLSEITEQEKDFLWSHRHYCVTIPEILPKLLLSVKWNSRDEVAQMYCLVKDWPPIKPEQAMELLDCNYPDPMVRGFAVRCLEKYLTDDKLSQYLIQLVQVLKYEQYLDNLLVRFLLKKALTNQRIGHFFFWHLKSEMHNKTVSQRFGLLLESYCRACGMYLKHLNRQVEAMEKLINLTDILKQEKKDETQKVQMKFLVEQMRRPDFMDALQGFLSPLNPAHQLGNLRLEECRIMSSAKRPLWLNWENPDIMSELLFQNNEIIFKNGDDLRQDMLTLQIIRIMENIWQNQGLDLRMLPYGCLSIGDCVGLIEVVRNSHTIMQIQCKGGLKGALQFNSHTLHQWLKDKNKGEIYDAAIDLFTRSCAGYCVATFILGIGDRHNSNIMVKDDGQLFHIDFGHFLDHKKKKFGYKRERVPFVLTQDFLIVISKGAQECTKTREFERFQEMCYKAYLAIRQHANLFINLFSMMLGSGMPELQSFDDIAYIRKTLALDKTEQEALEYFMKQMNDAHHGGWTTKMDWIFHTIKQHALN", "assay": "Inhibition of PIK3CA ATP labeling site in human Huh-7 cell lysate at 1 uM by KiNativ Profiling analysis relative to control", "type": "subcellular"}, "[14]": {"target": "Ribosomal protein S6 kinase alpha-3 (Homo sapiens) (UniProt P51812)", "sequence (P51812 whole entry, the tested form may be a part)": "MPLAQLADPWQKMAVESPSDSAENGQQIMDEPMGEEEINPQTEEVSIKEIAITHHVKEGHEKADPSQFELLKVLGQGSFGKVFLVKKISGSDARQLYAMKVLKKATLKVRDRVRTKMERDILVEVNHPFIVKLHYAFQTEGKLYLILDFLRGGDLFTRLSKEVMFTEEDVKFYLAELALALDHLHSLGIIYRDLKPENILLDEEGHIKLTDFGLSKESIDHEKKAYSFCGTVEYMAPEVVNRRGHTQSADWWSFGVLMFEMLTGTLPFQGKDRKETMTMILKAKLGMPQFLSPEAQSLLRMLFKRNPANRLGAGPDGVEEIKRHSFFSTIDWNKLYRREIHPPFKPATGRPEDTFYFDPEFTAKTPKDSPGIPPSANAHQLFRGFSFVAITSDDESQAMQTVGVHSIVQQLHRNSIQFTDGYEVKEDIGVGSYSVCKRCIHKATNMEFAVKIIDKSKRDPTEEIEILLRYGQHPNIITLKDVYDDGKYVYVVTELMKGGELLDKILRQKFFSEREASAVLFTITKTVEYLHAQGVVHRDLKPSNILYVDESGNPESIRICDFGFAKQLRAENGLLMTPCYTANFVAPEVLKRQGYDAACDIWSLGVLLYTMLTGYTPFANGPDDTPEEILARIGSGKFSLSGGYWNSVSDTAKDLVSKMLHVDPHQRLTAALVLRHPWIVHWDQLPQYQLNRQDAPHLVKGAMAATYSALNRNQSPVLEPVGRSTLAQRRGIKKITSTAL", "assay": "Inhibition of RSK2 domain2 ACT labeling site in human Huh-7 cell lysate at 1 uM by KiNativ Profiling analysis relative to control", "type": "subcellular"}, "[15]": {"target": "5'-AMP-activated protein kinase catalytic subunit alpha-1 (Homo sapiens) (UniProt Q13131)", "assay": "Inhibition of AMPKa1 ATP Loop labeling site in human Huh-7 cells at 1 uM by KiNativ Profiling analysis relative to control", "type": "cell-based"}}, "data": [{"smiles": "CCN1CCN(Cc2ccc(NC(=O)c3ccc(C)c(/C=C/c4cnc5[nH]ccc5c4OC)c3)cc2C(F)(F)F)CC1", "values": [{"measurement": "inhibition", "setting": "[1]", "value": 18, "unit": "%"}, {"measurement": "residual activity", "setting": "[2]", "value": 6.8, "unit": "%"}, {"measurement": "inhibition", "setting": "[3]", "value": 9.1, "unit": "%"}, {"measurement": "inhibition", "setting": "[4]", "value": -8.8, "unit": "%"}, {"measurement": "inhibition", "setting": "[5]", "value": 1.4, "unit": "%"}]}, {"smiles": "CCN1CCN(Cc2ccc(NC(=O)c3ccc(C)c(Oc4ccnc5[nH]ccc45)c3)cc2C(F)(F)F)CC1", "values": [{"measurement": "inhibition", "setting": "[6]", "value": 41.1, "unit": "%"}, {"measurement": "inhibition", "setting": "[7]", "value": 19.2, "unit": "%"}, {"measurement": "inhibition", "setting": "[8]", "value": 12.7, "unit": "%"}, {"measurement": "inhibition", "setting": "[9]", "value": 3.3, "unit": "%"}, {"measurement": "inhibition", "setting": "[10]", "value": 84.8, "unit": "%"}, {"measurement": "inhibition", "setting": "[11]", "value": 51.2, "unit": "%"}, {"measurement": "inhibition at 1 µM", "setting": "[12]", "value": 7.4, "unit": "%"}]}, {"smiles": "CNc1cc(Oc2cc(C(=O)Nc3cc(N4CCN(C)CC4)cc(C(F)(F)F)c3)ccc2C)ncn1", "values": [{"measurement": "inhibition", "setting": "[13]", "value": 12.4, "unit": "%"}, {"measurement": "inhibition", "setting": "[14]", "value": 1.9, "unit": "%"}, {"measurement": "inhibition", "setting": "[15]", "value": -3.8, "unit": "%"}]}]}
